Measurements reported in US4426377A, “Clavulanic acid derivatives their preparation and use” (Beecham Group Limited, priority 1977, dated 1984).

Tests used:
[1] = tested on: gram negative bacteria such as Escherichia and Klebsiella and gram positive bacteria such as Staphylococcus; test: summary of synergism with penicillins; conditions: against gram negative and gram positive bacteria
Description: (§1) a. Sub-cutanvenous administration: Groups of mice were infected inter peritoneally with Escherichia coli JT39. At 1 and 5 hours post infection the mice were treated with amoxycillin (Amox.) or with amoxycillin and synergist. The solutions were made up in phosphate buffer. The results were as follows:
(§2) b. Oral administration: Groups of mice were infected inter peritoneally with Escherichia coli JT39. At 1, 3 and 5 hours post-infection the mice were treated with amoxycillin or with amoxycillin and synergist. The solutions were made up in phosphate buffer.

[2] = signs of drug toxicity during the in-vivo tests; conditions: during the in-vivo tests in mice
Description: as §1, §2

[3] = tested on: Escherichia coli JT 39; test: CD50 in intraperitoneal Escherichia coli JT 39 infection in mice, sub-cutaneous dosing (Demonstration 2); assay type: in vivo, mice infected with Escherichia coli; conditions: with amoxycillin, E. coli JT 39 infection in mice
Description: b. […] Dosing was sub-cutaneous and 1 and 5 hours post infection.

[4] = tested on: Kleb. E 70; test: microliter MIC test, Kleb. E 70; assay type: cell-based, Klebsiella
Description: (§3) a. The antibacterial and synergistic activity of the title compound (referred to as "Synergist" in the Table) was determined by a conventional microliter method.

[5] = tested on: E. Coli JT 410; test: microliter MIC test, E. coli JT 410; assay type: cell-based, Escherichia coli
Description: as §3

[6] = tested on: Proteus C 889; test: microliter MIC test, Proteus C 889; assay type: cell-based; conditions: for MIC of ampicillin with title compound: trailing end point
Description: as §3

[7] = tested on: Staph. Russell; test: microliter MIC test, Staph. Russell; assay type: cell-based, Staphylococcus
Description: as §3

For `O=C1CC(OC/C=C2\O[C@@H]3CC(=O)N3[C@H]2C(=O)O)N1` (some centres unmarked) [Example 2, Sodium 9-O-(azetidin-2'-on-4'-yl)clavulanate], the “synergism with penicillins such as amoxycillin” value [1] was “effective synergist for penicillins such as amoxycillin against gram negative bacteria such as Escherichia and Klebsiella and gram positive bacteria such as Staphylococcus” and the “signs of drug toxicity” value [2] was “No signs of drug toxicity were observed”.

For `CC(NC=O)OC/C=C1\O[C@@H]2CC(=O)N2[C@H]1C(=O)O` (some centres unmarked) [Example 9, Lithium 9-O-(1-formamidoethyl)clavulanate], the “effect on the effectiveness of amoxycillin” value [3] was “found to enhance the effectiveness of amoxycillin”.

In the case of `NCC(=O)NCOCC=C1OC2CC(=O)N2C1C(=O)O` (centres unmarked) [Example 11, 9-O-(Glycylaminomethyl)clavulanic acid], the “MIC of ampicillin with title compound/synergist” value ([4]; Amp. + 1 μg/ml of the compound) is reported as 6.25 µg/mL, the “MIC of ampicillin with title compound/synergist” value ([4]; Amp. + 5 μg/ml of the compound) is reported as 1.5 µg/mL and the MIC ([4]; alone) is reported as 62.5 µg/mL. For the same molecule, the “MIC of ampicillin with title compound/synergist” value ([5]; Amp. + 5 μg/ml of the compound) was 62.5 µg/mL, the MIC ([5]; alone) was 62.5 µg/mL and the “MIC of ampicillin with title compound” value ([6]; Amp. + 1 μg/ml of the compound) was 8 µg/mL. The “MIC of ampicillin with title compound” value ([6]; Amp. + 5 μg/ml of the compound) was 2 µg/mL, the MIC ([6]; alone) was 250 µg/mL and the “MIC of ampicillin with title compound/synergist” value ([7]; Amp. + 1 μg/ml of the compound) was 1.25 µg/mL. For the same molecule, the “MIC of ampicillin with title compound/synergist” value ([7]; Amp. + 5 μg/ml of the compound) was 0.15 µg/mL and the MIC ([7]; alone) was 8 µg/mL.
